How the values were obtained:
human mGlu2 receptors = molecular target: T1, human mGlu2 receptors (Homo sapiens, UniProt Q14416); test: mGlu2 receptor cAMP antagonist assay; format: cell-based; conditions: reversal of DCG IV (EC90) inhibition of forskolin-stimulated cAMP; AV12 cells
T1 construct: expressed in transfected cells; host or cells: AV12 cells, co-expressing rat EAAT1
Description: (§1) mGlu2 and mGlu3 Receptor cAMP Antagonist Assays
Antagonist activity is assayed in recombinant AV12 cells stably expressing human mGlu2 or mGlu3 receptors and the rat glutamate transporter EAAT1 (Excitatory Amino Acid Transporter 1). The cell lines are maintained by culturing in DMEM with high glucose and pyridoxine hydrochloride supplemented with 5% dialyzed fetal bovine serum (FBS), 1 mM sodium pyruvate, 1 mM HEPES and 1 mM L-glutamine; geneticin and hygromycin B are used as selection antibiotics.
Reversal of the inhibition of forskolin-stimulated cAMP production by test compounds is measured using homogeneous time resolved fluorescence technology (HTRF; Cisbio cat #62AM4PEB). The medium is removed and the cells are incubated with 100 μl cAMP stimulation buffer (STIM) for 30 minutes at 37° C. […] Cells are incubated at 37° C. for 20 minutes. To measure the cAMP levels, cAMP-d2 conjugate and anti cAMP-cryptate conjugate in lysis buffer are incubated with the treated cells at room temperature for 1 hour (mGlu2) or 1.5 hour (mGlu3). […] The raw data are converted to cAMP amount (pmole/well) using a cAMP standard curve generated for each experiment. Relative IC50 values are calculated from the top-bottom range of the concentration response curve using a four-parameter logistic curve fitting program (ActivityBase v5.3.1.22).

human mGlu3 receptors = molecular target: T2, human mGlu3 receptors (Homo sapiens, UniProt Q14832); test: mGlu3 receptor cAMP antagonist assay; format: cell-based; conditions: reversal of DCG IV (EC90) inhibition of forskolin-stimulated cAMP; AV12 cells
T2 construct: expressed in transfected cells; host or cells: AV12 cells, co-expressing rat EAAT1
T2 sequence (Q14832 23-879): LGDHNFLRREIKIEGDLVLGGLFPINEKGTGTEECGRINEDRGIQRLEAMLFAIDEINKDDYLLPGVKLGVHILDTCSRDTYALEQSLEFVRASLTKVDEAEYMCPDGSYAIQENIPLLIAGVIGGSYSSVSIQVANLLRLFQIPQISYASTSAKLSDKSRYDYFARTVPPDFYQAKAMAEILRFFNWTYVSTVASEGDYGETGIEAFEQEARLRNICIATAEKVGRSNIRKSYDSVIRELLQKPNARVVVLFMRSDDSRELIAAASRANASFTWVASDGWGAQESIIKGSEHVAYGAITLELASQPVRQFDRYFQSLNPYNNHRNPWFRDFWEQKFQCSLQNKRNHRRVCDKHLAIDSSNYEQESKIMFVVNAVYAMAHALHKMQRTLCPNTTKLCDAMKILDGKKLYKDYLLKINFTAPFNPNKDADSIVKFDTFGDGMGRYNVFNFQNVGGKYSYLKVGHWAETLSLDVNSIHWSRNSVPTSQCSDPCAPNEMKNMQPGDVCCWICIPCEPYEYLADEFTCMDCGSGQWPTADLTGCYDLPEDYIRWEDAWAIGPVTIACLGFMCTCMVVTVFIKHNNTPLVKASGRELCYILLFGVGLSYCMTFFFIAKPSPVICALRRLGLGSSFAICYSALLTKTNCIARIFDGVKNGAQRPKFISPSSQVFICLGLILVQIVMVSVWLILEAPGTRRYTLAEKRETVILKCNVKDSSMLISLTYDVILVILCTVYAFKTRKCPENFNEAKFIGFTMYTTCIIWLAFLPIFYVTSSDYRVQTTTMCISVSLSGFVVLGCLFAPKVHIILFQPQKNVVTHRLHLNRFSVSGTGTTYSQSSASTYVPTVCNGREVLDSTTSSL
Description: as §1
Antagonist activity is assayed in recombinant AV12 cells stably expressing human mGlu2 or mGlu3 receptors and the rat glutamate transporter EAAT1 (Excitatory Amino Acid Transporter 1). The cell lines are maintained by culturing in DMEM with high glucose and pyridoxine hydrochloride supplemented with 5% dialyzed fetal bovine serum (FBS), 1 mM sodium pyruvate, 1 mM HEPES and 1 mM L-glutamine; geneticin and hygromycin B are used as selection antibiotics. Confluent cultures are grown at 37° C. in an atmosphere containing 6.5% CO2, and passaged biweekly. Cells are harvested using 0.25% trypsin, suspended in freeze media (FBS with 10% DMSO) at 10^7 cells/ml, and aliquots are stored in liquid nitrogen. Twenty-four hours before the assay, cells are plated at a density of 8,000-10,000 cells per well in a tissue culture treated, 96-well, half-area black plates (Costar 3875) in 50 μl of DMEM with high glucose and pyridoxine hydrochloride supplemented with 5% dialyzed FBS, 1 mM sodium pyruvate, 1 mM HEPES, 100 μg/ml ampicillin, and 250 μM (mGlu2) or 125 μM (mGlu3) of L-glutamine.
Reversal of the inhibition of forskolin-stimulated cAMP production by test compounds is measured using homogeneous time resolved fluorescence technology (HTRF; Cisbio cat #62AM4PEB). The medium is removed and the cells are incubated with 100 μl cAMP stimulation buffer (STIM) for 30 minutes at 37° C. (STIM buffer contains 500 ml HBSS, 1000 ml DPBS, 0.034% BSA, 1.67 mM HEPES and 500 μM IBMX (Sigma 15879).) Compounds are tested in 10-point concentration response curves using 3× serial dilution followed by further 40-fold dilution into STIM buffer. DCG IV (Tocris 0975) serves as the reference agonist. The final reaction mixture contains 1 μM (for mGlu2) or 3 μM (for mGlu3) of forskolin (Sigma F6886), DCG IV at its EC90, and up to 25 μM of test compound. Cells are incubated at 37° C. for 20 minutes. To measure the cAMP levels, cAMP-d2 conjugate and anti cAMP-cryptate conjugate in lysis buffer are incubated with the treated cells at room temperature for 1 hour (mGlu2) or 1.5 hour (mGlu3). The HTRF signal is detected using an EnVision plate reader (Perkin-Elmer) to calculate the ratio of fluorescence at […]. The raw data are converted to cAMP amount (pmole/well) using a cAMP standard curve generated for each experiment. Relative IC50 values are calculated from the top-bottom range of the concentration response curve using a four-parameter logistic curve fitting program (ActivityBase v5.3.1.22).

human mGlu6 receptor = molecular target: T3, human mGlu6 receptor (Homo sapiens, UniProt O15303); test: mGlu6 cAMP antagonist assay (reference agonist L-AP4); format: cell-based; conditions: cAMP format
T3 construct: expressed in transfected cells; host or cells: AV12 cells, co-expressing rat EAAT1
T3 sequence (O15303 25-877): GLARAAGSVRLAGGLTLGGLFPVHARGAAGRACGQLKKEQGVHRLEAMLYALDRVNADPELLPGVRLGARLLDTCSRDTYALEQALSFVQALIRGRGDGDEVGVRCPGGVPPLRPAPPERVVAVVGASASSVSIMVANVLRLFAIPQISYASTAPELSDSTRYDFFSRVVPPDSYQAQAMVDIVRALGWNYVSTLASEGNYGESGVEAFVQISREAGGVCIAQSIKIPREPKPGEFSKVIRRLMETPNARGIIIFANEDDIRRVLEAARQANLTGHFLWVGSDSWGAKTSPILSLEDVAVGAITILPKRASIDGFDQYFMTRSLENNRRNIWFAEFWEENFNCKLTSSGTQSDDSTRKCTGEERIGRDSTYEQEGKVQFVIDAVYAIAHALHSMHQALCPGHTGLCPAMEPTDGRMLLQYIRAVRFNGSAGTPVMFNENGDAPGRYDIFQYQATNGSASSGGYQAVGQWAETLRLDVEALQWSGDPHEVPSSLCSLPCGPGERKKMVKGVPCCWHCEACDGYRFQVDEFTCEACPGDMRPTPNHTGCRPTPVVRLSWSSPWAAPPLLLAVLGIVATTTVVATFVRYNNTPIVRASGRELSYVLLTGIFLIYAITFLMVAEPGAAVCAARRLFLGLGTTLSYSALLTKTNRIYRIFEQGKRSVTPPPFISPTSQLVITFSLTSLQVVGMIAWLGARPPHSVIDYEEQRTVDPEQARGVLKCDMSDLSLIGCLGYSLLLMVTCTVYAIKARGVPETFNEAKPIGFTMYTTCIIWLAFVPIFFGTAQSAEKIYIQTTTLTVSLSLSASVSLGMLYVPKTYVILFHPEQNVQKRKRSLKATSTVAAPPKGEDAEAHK
Description: FLIPR and cAMP Assays for mGlu Receptor Selectivity
The relative antagonist potencies of the compounds of the invention for the other human mGlu receptors can be assessed with either a cAMP assay or fluorometric calcium response assay (see for example Fell et al., JPET (in press)). Briefly, individual AV12 cell lines containing the rat EAAT1 glutamate transporter and stably expressing the human mGlu1, 2, 3, 4, 5, 6, & 8 receptors are used for these studies. The mGlu1 and 5 receptors are […], so they naturally signal through phospholipase C, producing a calcium flux response which can be used to measure receptor activation using a Fluorometric Imaging Plate Reader (FLIPR, Molecular Devices). The cell lines expressing the mGlu2, 3, 4, and 8 receptor are designed to express the Gα15 subunit so that these Gi-coupled receptors will generate a calcium flux response similar to the mGlu1 and 5 receptor expressing cell lines. The mGlu6 receptor is tested in a cAMP format using methods analogous to those developed for mGlu2 and mGlu3 above. These cell lines are maintained as previously described except that amounts of L-glutamine and selection agents (geneticin, hygromycin B, zeocin, and blasticidin) may vary depending on the cell line. Confluent cultures are passaged biweekly.
Antagonist activity in mGlu6 cells is measured using cAMP in a method analogous to that described above for mGlu2 and mGlu3 activity, except that the reference agonist was L-AP4 (Tocris). […] Relative IC50 and EC50 values are calculated from the top-bottom range of the concentration response curve using a four-parameter logistic curve fitting program (ActivityBase v5.3.1.22).

male NIH-Swiss mice = test: Forced-swim test in mice (mFST); format: in vivo, mouse; conditions: for ED60: Mus musculus, ip, immobility in last 4 min of 6 min; for Maximal Decrease (1 − compound/control) * 100%: i.p., immobility time
Description: Forced-Swim Test in Mice (mFST)
mFST is an established in vivo assay for antidepressant activity (Li et al. J Pharmacol Exp Ther. 319(1):254-9, 2006.). […] The mFST was used to evaluate potential antidepressant-like activity of novel mGlu2/3 antagonists essentially as described in previously published methods (see for example, Li et al. J Pharmacol Exp Ther. 319(1):254-9, 2006.). Briefly, male NIH-Swiss mice (Harlan Sprague-Dawley, Indianapolis, Ind.) weighing between 25-30 g are used. Group housed animals are removed from the vivarium to the testing area in their own cages and allowed to adapt to the new environment for at least 1 hour before testing. Compounds where R^1 and R^2 are both hydrogen are dissolved in water with minimal NaOH added for dissolution and are administered i.p. Compounds where R^1 and/or R^2 are other than hydrogen are prepared on the day of use in 2.0-2.5% N-methyl-pyrrolidinone and then suspended in 1% HEC, 0.25% Tween 80, and 0.05% Dow antifoam, and administered orally. Mice are placed in a cylinder (diameter: 10 cm; height: 25 cm) filled with 6 cm of water (22-25° C.) for 6 min. The duration of immobility during the last 4 min. of the 6 min. period of the test was scored. A mouse is recorded as immobile when floating motionless or making only those movements necessary to keep its head above water.

mice = test: mFST with SSRI (fluoxetine combination); format: in vivo, mouse; conditions: Example 10 17 mg/kg p.o., fluoxetine 10 mg/kg i.p., alone or combined
Description: mFST is an established in vivo assay for antidepressant activity (Li et al. J Pharmacol Exp Ther. 319(1):254-9, 2006.). […] J Pharmacol Exp Ther. 319(1):254-9, 2006.). Briefly, male NIH-Swiss mice (Harlan Sprague-Dawley, Indianapolis, Ind.) weighing between 25-30 g are used. Group housed animals are removed from the vivarium to the testing area in their own cages and allowed to adapt to the new environment for at least 1 hour before testing. Compounds where R^1 and R^2 are both hydrogen are dissolved in water with minimal NaOH added for dissolution and are administered i.p. […] Mice are placed in a cylinder (diameter: 10 cm; height: 25 cm) filled with 6 cm of water (22-25° C.) for 6 min. The duration of immobility during the last 4 min. of the 6 min. period of the test was scored. A mouse is recorded as immobile when floating motionless or making only those movements necessary to keep its head above water. The compounds of the invention may also be tested in combination with other compounds useful for the treatment of depressive disorders, as for example SSRI's, for their ability to enhance the antidepressant-like effects over that of either compound alone.

T1 sequence (Q14416 19-872): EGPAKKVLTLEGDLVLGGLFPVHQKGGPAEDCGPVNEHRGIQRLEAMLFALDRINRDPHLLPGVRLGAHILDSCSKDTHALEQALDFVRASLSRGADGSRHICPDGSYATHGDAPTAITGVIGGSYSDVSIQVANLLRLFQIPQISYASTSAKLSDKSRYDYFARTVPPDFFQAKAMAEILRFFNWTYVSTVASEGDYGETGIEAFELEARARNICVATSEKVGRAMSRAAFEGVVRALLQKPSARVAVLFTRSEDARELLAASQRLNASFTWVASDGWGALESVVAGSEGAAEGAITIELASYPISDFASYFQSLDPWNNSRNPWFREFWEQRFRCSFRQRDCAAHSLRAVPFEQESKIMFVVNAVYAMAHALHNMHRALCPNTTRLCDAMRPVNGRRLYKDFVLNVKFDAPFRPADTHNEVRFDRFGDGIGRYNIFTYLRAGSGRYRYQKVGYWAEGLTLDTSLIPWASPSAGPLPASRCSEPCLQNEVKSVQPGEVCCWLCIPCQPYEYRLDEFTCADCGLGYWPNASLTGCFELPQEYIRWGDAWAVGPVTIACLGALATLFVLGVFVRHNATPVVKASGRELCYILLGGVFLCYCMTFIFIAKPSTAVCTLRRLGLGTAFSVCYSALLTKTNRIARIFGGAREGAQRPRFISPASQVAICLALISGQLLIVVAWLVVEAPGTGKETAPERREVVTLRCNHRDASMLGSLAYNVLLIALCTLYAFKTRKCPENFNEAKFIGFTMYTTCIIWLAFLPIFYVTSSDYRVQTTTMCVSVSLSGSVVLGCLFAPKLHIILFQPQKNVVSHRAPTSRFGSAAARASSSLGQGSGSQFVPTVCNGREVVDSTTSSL

IC50 (human mGlu2 receptors) | IC50 (human mGlu3 receptors) | IC50 (human mGlu6 receptor) | Structure (SMILES) | ED60 (male NIH-Swiss mice) | Maximal Decrease (1 − compound/control) * 100% (male NIH-Swiss mice) | Maximal Decrease (1 − compound/control) * 100% (mice) | Immobilization Time (mice; vehicle 174)
25.4 ± 4.8 nM | 10.8 nM | 2480 ± 295 nM | N[C@]1(C(=O)O)[C@@H]2[C@@H](C(=O)O)[C@@H]2[C@H](Sc2nccs2)[C@H]1OCc1ccc(Cl)c(Cl)c1 [Example 3, (1R,2R,3S,4S,5R,6R)-2-Amino-3-[(3,4-dichlorobenzyl)oxy]-4-(1,3-thiazol-2-ylsulfanyl)bicyclo[3.1.0]hexane-2,6-dicarboxylic acid] | 8.2 mg/kg | 47% | – | –
16.8 ± 1.6 nM | 9.5 ± 4.6 nM | 1580 ± 141 nM | COC(=O)N[C@H]1[C@H]2[C@H](C(=O)O)[C@H]2[C@](N)(C(=O)O)[C@@H]1OCc1ccc(Cl)c(Cl)c1 [Example 5, (1S,2R,3R,4S,5R,6S)-2-Amino-3-[(3,4-dichlorobenzyl)oxy]-4-[(methoxycarbonyl)amino]bicyclo[3.1.0]hexane-2,6-dicarboxylic acid] | 7.45 mg/kg | 56% | – | –
18.6 ± 3.9 nM | 13.9 ± 2.4 nM | 1360 ± 433 nM | Cl.Cn1ncnc1S[C@H]1[C@H]2[C@H](C(=O)O)[C@H]2[C@](N)(C(=O)O)[C@@H]1OCc1ccc(Cl)c(Cl)c1 [Example 6, (1R,2R,3S,4S,5R,6R)-2-amino-3-[(3,4-dichlorobenzyl)oxy]-4-[(1-methyl-1H-1,2,4-triazol-5-yl)sulfanyl]bicyclo[3.1.0]hexane-2,6-dicarboxylic acid hydrochloride] | 7.3 mg/kg | 47% | – | –
– | 26 ± 0.5 nM | 2580 nM | Cl.N[C@]1(C(=O)O)[C@@H]2[C@@H](C(=O)O)[C@@H]2[C@H](Sc2ncc[nH]2)[C@H]1OCc1ccc(Cl)c(Cl)c1 [Example 8, (1R,2R,3S,4S,5R,6R)-2-Amino-3-[(3,4-dichlorobenzyl)oxy]-4-(1H-imidazol-2-ylsulfanyl)bicyclo[3.1.0]hexane-2,6-dicarboxylic acid hydrochloride] | 9.1 mg/kg | 41% | – | –
– | – | – | CNCCC(Oc1ccc(C(F)(F)F)cc1)c1ccccc1 (stereo not drawn) [Fluoxetine, fluoxetine, reference compound] | – | – | 7.6% | 161 s

From patent publication US9056844B2, “4-substituted-3-benzyloxy-bicyclo[3.1.0]hexane compounds as mGluR 2/3 antagonists” (Eli Lilly and Company, priority 2010, dated 2015)
